The NIST ThermoML archive (doi:10.1021/je300972a)

Experiment: refractive index (Na D-line) (dimensionless); xn = mol fraction of the nth substance listed
Conditions: 101 kPa, Liquid, Standard Abbe refractometry

CCCC[n+]1ccc(C)cc1.O=S(=O)([N-]S(=O)(=O)C(F)(F)F)C(F)(F)F + CCCC[n+]1ccccc1.F[B-](F)(F)F
refractive index
Conditions | 293.15 K | 303.15 K | 313.15 K | 323.15 K | 333.15 K | 343.15 K | 353.15 K
x2 = 0 | 1.448 | 1.4449 | 1.4419 | 1.4388 | 1.4358 | 1.4328 | 1.4298
x2 = 0.0575 | 1.4479 | 1.4448 | 1.4418 | 1.4388 | 1.4357 | 1.4328 | 1.4298
x2 = 0.1136 | 1.4477 | 1.4446 | 1.4416 | 1.4386 | 1.4356 | 1.4327 | 1.4297
x2 = 0.2311 | 1.4474 | 1.4444 | 1.4414 | 1.4385 | 1.4356 | 1.4327 | 1.4298
x2 = 0.3515 | 1.4472 | 1.4443 | 1.4414 | 1.4385 | 1.4356 | 1.4327 | 1.4299
x2 = 0.4566 | 1.4471 | 1.4441 | 1.4413 | 1.4384 | 1.4356 | 1.4328 | 1.43
x2 = 0.5692 | 1.4469 | 1.4441 | 1.4413 | 1.4385 | 1.4357 | 1.433 | 1.4302
x2 = 0.673 | 1.4468 | 1.444 | 1.4413 | 1.4385 | 1.4358 | 1.4331 | 1.4304
x2 = 0.7836 | 1.4468 | 1.4441 | 1.4413 | 1.4386 | 1.4359 | 1.4333 | 1.4306
x2 = 0.889 | 1.4469 | 1.4442 | 1.4416 | 1.4389 | 1.4362 | 1.4336 | 1.431
x2 = 0.9535 | 1.447 | 1.4443 | 1.4417 | 1.439 | 1.4364 | 1.4338 | 1.4313
